Source: patent US9296704B2, “Substituted pyrimidines as protein kinase inhibitors” (CELGENE AVILOMICS RESEARCH, INC., priority 2007, dated 2016)

Molecular target: T1, TEC kinase (Homo sapiens, UniProt P42680)
T1 construct: purchased Invitrogen
T1 sequence (P42680 1-631): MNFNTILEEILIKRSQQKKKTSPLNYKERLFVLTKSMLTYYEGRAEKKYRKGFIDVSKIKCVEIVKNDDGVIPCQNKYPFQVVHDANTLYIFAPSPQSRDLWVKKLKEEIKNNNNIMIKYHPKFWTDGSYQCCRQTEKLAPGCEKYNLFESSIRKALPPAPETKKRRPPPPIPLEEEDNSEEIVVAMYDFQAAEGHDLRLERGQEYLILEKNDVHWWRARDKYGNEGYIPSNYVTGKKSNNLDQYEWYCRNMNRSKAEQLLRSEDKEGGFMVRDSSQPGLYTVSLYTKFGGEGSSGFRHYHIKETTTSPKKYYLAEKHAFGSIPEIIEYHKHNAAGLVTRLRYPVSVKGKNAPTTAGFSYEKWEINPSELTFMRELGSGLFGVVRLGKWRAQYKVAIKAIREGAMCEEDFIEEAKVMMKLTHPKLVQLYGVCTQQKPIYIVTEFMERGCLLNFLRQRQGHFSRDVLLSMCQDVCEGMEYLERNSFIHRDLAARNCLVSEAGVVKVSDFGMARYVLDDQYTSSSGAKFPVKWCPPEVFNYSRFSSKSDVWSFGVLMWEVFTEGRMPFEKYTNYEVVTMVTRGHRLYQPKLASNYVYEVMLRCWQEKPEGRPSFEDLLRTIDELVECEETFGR
Assay: Mass spectrometry for TEC kinase (tryptic digest)
Type: binding, homo sapien
Details: 10× excess, 3 hrs, MALDI
Experimental: TEC kinase (45 pmols; Invitrogen) was incubated with (I-13) (450 pmols) for 3 hrs at 10× access prior to tryptic digestion. Iodoacetamide was used as the alkylating agent after compound incubation. […] For tryptic digests a 5 ul aliquot (7.5 pmols) was diluted with 15 ul of 0.1% TFA prior to micro C18 Zip Tipping directly onto the MALDI target using alpha cyano-4-hydroxy cinnamic acid as the matrix (5 mg/ml in 0.1% TFA:Acetonitrile 50:50).
As depicted in FIG. 11, the expected peptide (GCLLNFLR) to be modified was immediately evident at MH+ of 1358.65. This is the mass to be expected when compound I-13, with an adduct mass of 423.17, is added to the peptide mass of 935.51. The peptide was also quite evident in the control sample as modified by Iodacetamide at MH+ of 992.56. […] There was no evidence of any other modified peptides.
To further verify the presence of the modified peptide with compound I-13, the peptide at MH+ of 1358.65 was subjected to PSD (MS/MS) analysis. A correlational analysis with the homo sapien database identified the correct peptide modified by I-13.
For tryptic digests the instrument was set in Reflectron mode with a pulsed extraction setting of 2200. Calibration was done using the Laser Biolabs Pep Mix standard (1046.54, 1296.69, 1672.92, 2093.09, 2465.20). […]

Compound: C=CC(=O)Nc1cccc(Nc2cc(Nc3ccc(Oc4ccccc4)cc3)ncn2)c1 [I-13, N-{3-[6-(4-phenoxyphenylamino)-pyrimidin-4-ylamino]phenyl}-2 propenamide]
- modification of TEC peptide GCLLNFLR in tryptic digest: reaction was complete
